Consider six compounds from patent EP2392568A1, “Heterocyclic amino acids for prostate cancer imaging” (priority 2010, dated 2011).

For data set [1], the system named is DU145 prostate cancer cells. The data set is described as follows: Cell-uptake experiment: uptake of [14C] ACPC in the presence of excess heterocyclic amino acid. To be noted: 5 µM 14C-ACPC, 60 minutes at 37°C, uptake buffer PBS with 0.1% BSA, Figure 10. Type of data set: cell-based. The method, then:
To assess the difference between heterocyclic amino acids and other non-natural amino acids, we studied the uptake of the cyclic amino acid [14C] ACPC into DU145 prostate cancer cells in the presence of excess amount of an heterocyclic amino acid (compound 15). 25000 DU145 cells were seeded per cavity of a 48 well incubation plate (Becton Dickinson; Cat. 353078) and incubated for 2 days in D-MEM / F-12 (1:1) with GlutaMAx (Invitrogen; Cat. 31331) medium supplemented with 10% FCS in an incubator (37°C, 5%CO2).

The next data set relates to DU145 xenografts. The data set is described as follows: PET/CT-imaging in DU145-tumor bearing mice. Type of data set: in vivo. The conditions noted are these: microPET/CT; for renal clearance / background activity: 50-70min after injection; for tumor-contrast: 50-70min after injection of - 10 MBq radiotracer; for background activity: except for kidney and bladder uptake. The method, then:
Example 9 was imaged on a microPET/ CT (Inveon, Siemens) in DU145 tumor-bearing mice 50-70min after injection of - 10 MBq radiotracer 45.
Example 10 was imaged on a microPET/ CT (Inveon, Siemens) in DU145 tumor-bearing mice 50-70min after injection of - 10 MBq radiotracer 46.

Data set [2] deals with primary prostate cancer tumors. To be noted: prostate cancer patients, cited from earlier work; for uptake into primary prostate cancer tumors: Schuster et al., abstract at SNM 2010.
The conditions of data set [3]: McConathy and Goodman, Cancer Metastasis Rev. 2008; cited from earlier work.

As to `N[C@]1(C(=O)O)COC[C@H]1F` (racemic) [compound 15, (3SR,4SR)-3-Amino-4-fluorotetrahydrofuran-3-carboxylic acid], the “[14C] ACPC uptake into DU145 prostate cancer cells in the presence of excess amount of heterocyclic amino acid” value in data set [1] is “able to block [14C] ACPC uptake”.

As for `NC1(C(=O)O)COCC1[18F]` (racemic) [tracer 45, (3SR,4SR)-3-Amino-4-[^18F]fluorotetrahydrofuran-3-carboxylic acid], in the data set on DU145 xenografts, the renal clearance entry is listed as “rapid renal clearance”, the tumor-contrast entry is reported as “High tumor-contrast” and the background activity entry was “very low background activity”.

Turning to `N[C@@]1(C(=O)O)CCOC[C@@H]1[18F]` (racemic) [tracer 46, (3RS,4RS)-4-Amino-3-[^18F]fluoro-3,4,5,6-tetrahydro-2H-pyran-4-carboxylic acid], in the data set with DU145 xenografts, the renal clearance result is recorded as “rapid renal clearance”, the tumor-contrast result is recorded as “High tumor-contrast” and the background activity result was “very low background activity”.

With `NC1(C(=O)O)CCCC1[18F]` (centres unmarked) [2-FACPC], in data set [2], the “uptake into primary prostate cancer tumors” value is listed as “showed uptake into primary prostate cancer tumors”, the “background in other organs” value is reported as “high background signals for instance in the blood pool” and the “renal elimination / excretion into the bladder” value was “excreted into the bladder more rapidly”.

With `N[C@]1(C(=O)O)C[C@@H](F)C1` [3-FACBC, anti-1-amino-3-[18F]fluorocyclobutyl-1-carboxylic acid], in data set [2], the “uptake into primary prostate cancer tumors” value was “showed uptake into primary prostate cancer tumors”; the “background in other organs” value is “high background in other organs such as liver and heart”; the “renal elimination / excretion into the bladder” value is “delayed renal elimination”.

Take `NC1([11C](=O)O)CCC1` [[11C]ACBC, 1-aminocyclobutane-1-[11C]carboxylic acid]: the metabolism result in data set [3] is “not metabolized”.
